Test results published in article PMC8829087 (The Journal of Biological Chemistry, 2021).

Key:
[1] = system: GLP-1R variants P7^ECDL, R44^ECDH and L260^ICL2P; conditions: cited from earlier work
Description: (§1) Previous in vivo characterizations of missense variants in the GLP-1R and GIPR have pointed to associations between receptor impairments and clinical phenotypes. One example is the more frequently occurring variant of GIPR E354^6.53Q (gnomAD MAF: 0.2). […] Heterozygous carriers of the rare missense variant T14 ...

GLP-1R G168^1.63S = conditions: cited from earlier work
Description: as §1

GLP-1R T149^1.44M = conditions: cited from earlier work
Description: as §1

[2] = system: patients with type 2 diabetes, GLP-1R G168^1.63S carriers; conditions: cited from earlier work
Description: as §1

[3] = target: human glucagon receptor missense variant R225^3.30H (human) (UniProt P47871)
Sequence of UniProt P47871 (P47871 other isoform, or with tags, fused parts or gaps mutant): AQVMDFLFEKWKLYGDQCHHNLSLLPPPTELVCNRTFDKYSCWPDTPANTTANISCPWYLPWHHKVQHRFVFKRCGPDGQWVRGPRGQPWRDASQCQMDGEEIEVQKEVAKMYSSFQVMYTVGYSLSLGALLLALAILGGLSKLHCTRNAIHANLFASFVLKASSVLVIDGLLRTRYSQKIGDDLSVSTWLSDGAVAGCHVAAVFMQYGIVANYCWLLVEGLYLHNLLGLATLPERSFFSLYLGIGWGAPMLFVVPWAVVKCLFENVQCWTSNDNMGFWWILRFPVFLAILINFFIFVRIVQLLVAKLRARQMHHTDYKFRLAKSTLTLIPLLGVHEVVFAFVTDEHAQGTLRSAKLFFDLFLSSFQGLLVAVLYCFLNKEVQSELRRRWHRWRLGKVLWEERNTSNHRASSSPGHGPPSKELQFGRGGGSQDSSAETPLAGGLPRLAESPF

## glucagon-like peptide-1 [GLP-1]
[1]
  GLP-1 binding and receptor signaling: wildtype-like GLP-1 binding and receptor signaling
GLP-1R G168^1.63S
  receptor signaling and binding affinity of GLP-1: preserved receptor signaling and binding affinity
GLP-1R T149^1.44M
  binding capacity of GLP-1: lower binding capacity
  receptor signaling: impaired receptor signaling capabilities

## liraglutide: treatment with liraglutide of patients with type 2 diabetes (HAEGTFTSDVSSYLEGQAAKEFIAWLVRGRG; chains of the INN, looked up)
[2]
  weight loss and fat mass: improved weight loss and lower fat mass

## β-arrestin-2 (Rluc8-Arr3-Sp2) (from UniProt P32121 1-409) (natural protein)
[3]
  potency (EC50) of glucagon in β-arrestin-2 recruitment, BRET in HEK293, fold decrease against wildtype: 6 fold
